One block for each compound: values may come before it.
Assays:
[1] = target: Serine/threonine-protein kinase B-raf (Homo sapiens, UniProt P15056); assay: Inhibition of B-Raf (unknown origin) by fluorescence polarization assay
Homo sapiens [2] = species: Homo sapiens; assay: Selectivity ratio of IC50 for AKT1 (unknown origin) to IC50 for B-Raf (unknown origin)
Homo sapiens [3] = species: Homo sapiens; assay: Selectivity ratio of IC50 for ALK5 (unknown origin) to IC50 for B-Raf (unknown origin)
Homo sapiens [4] = species: Homo sapiens; assay: Selectivity ratio of IC50 for aurora-A (unknown origin) to IC50 for B-Raf (unknown origin)
Homo sapiens [5] = species: Homo sapiens; assay: Selectivity ratio of IC50 for aurora-B (unknown origin) to IC50 for B-Raf (unknown origin)
Homo sapiens [6] = species: Homo sapiens; assay: Selectivity ratio of IC50 for BTK (unknown origin) to IC50 for B-Raf (unknown origin)
Homo sapiens [7] = species: Homo sapiens; assay: Selectivity ratio of IC50 for EGFR (unknown origin) to IC50 for B-Raf (unknown origin)
Homo sapiens [8] = species: Homo sapiens; assay: Selectivity ratio of IC50 for ERBB2 (unknown origin) to IC50 for B-Raf (unknown origin)
Homo sapiens [9] = species: Homo sapiens; assay: Selectivity ratio of IC50 for GSK3beta (unknown origin) to IC50 for B-Raf (unknown origin)
Homo sapiens [10] = species: Homo sapiens; assay: Selectivity ratio of IC50 for IGF1R (unknown origin) to IC50 for B-Raf (unknown origin)
Homo sapiens [11] = species: Homo sapiens; assay: Selectivity ratio of IC50 for IKK2 (unknown origin) to IC50 for B-Raf (unknown origin)
Homo sapiens [12] = species: Homo sapiens; assay: Selectivity ratio of IC50 for JNK3 (unknown origin) to IC50 for B-Raf (unknown origin)
Homo sapiens [13] = species: Homo sapiens; assay: Selectivity ratio of IC50 for PKA (unknown origin) to IC50 for B-Raf (unknown origin)
Homo sapiens [14] = species: Homo sapiens; assay: Selectivity ratio of IC50 for ROCK1 (unknown origin) to IC50 for B-Raf (unknown origin)
Homo sapiens [15] = species: Homo sapiens; assay: Selectivity ratio of IC50 for SGK1 (unknown origin) to IC50 for B-Raf (unknown origin)
Homo sapiens [16] = species: Homo sapiens; assay: Selectivity ratio of IC50 for SYK (unknown origin) to IC50 for B-Raf (unknown origin)
Homo sapiens [17] = species: Homo sapiens; assay: Selectivity ratio of IC50 for ZAP70 (unknown origin) to IC50 for B-Raf (unknown origin)

Sequence of Serine/threonine-protein kinase B-raf (P15056 whole entry): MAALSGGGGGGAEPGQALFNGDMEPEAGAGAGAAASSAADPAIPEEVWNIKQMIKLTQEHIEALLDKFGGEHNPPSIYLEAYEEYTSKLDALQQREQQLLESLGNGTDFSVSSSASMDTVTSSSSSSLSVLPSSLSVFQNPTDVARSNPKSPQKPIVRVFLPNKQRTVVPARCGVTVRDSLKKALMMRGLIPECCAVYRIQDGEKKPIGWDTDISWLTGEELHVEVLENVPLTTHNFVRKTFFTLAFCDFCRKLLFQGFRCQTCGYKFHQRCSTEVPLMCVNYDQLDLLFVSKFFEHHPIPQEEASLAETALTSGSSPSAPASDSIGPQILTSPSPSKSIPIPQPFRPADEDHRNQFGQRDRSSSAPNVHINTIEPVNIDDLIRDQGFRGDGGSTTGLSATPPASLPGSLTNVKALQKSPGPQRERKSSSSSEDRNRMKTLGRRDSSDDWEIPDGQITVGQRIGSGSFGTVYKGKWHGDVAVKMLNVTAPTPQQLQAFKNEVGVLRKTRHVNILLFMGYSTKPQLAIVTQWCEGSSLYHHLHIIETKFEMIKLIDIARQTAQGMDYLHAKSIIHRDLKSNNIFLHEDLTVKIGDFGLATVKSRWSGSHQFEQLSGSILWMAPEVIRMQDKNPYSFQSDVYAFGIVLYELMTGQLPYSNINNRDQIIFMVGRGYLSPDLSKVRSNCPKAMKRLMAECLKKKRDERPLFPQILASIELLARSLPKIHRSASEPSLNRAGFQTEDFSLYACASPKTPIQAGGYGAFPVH

Structure (SMILES): Cn1cccc1C(=O)Nc1cccc(-c2csc3c(-c4cccnc4)cnc(N)c23)c1
IC50 [1]: 4170 nM

Structure (SMILES): Nc1ncc(-c2cccnc2)c2scc(-c3cccc(NS(=O)(=O)c4ccccc4)c3)c12
IC50 [1]: > 10000 nM

Structure (SMILES): Nc1ncc(-c2cccnc2)c2scc(-c3cccc(NC(=O)Nc4ccc(OCc5ccccc5)cc4)c3)c12
IC50 [1]: 933 nM

Structure (SMILES): Nc1ncc(-c2cccnc2)c2scc(-c3cccc(NC(=O)C4CCCCC4)c3)c12
IC50 [1]: 1550 nM

Structure (SMILES): CC(C)(C)NC(=O)Nc1cccc(-c2csc3c(-c4cccnc4)cnc(N)c23)c1
IC50 [1]: 7940 nM

Structure (SMILES): Nc1cccc(-c2csc3c(-c4cccnc4)cnc(N)c23)c1
IC50 [1]: > 10000 nM

Structure (SMILES): Nc1ncc(-c2cccnc2)c2scc(-c3cccc(NC(=O)c4cc(F)ccc4F)c3)c12
IC50 [1]: 49 nM

Structure (SMILES): Cc1noc(C)c1NC(=O)Nc1cccc(-c2csc3c(-c4cccnc4)cnc(N)c23)c1
IC50 [1]: 692 nM

Structure (SMILES): Nc1ncc(-c2cccnc2)c2scc(-c3cccc(NC(=O)c4ccccc4)c3)c12
IC50 [1]: 93 nM

Stronger by IC50 [1], values ahead:

IC50 [1]: 45 nM
Structure (SMILES): Nc1ncc(-c2cccnc2)c2scc(-c3cccc(NC(=O)Cc4cccs4)c3)c12

IC50 [1]: 30.9 nM
Structure (SMILES): Nc1ncc(-c2cccnc2)c2scc(-c3cccc(NC(=O)NC4CCCCC4)c3)c12

IC50 [1]: 25.1 nM
Structure (SMILES): Nc1ncc(-c2cccnc2)c2scc(-c3cccc(NC(=O)Nc4ccc(C(F)(F)F)cc4)c3)c12

IC50 [1]: 21.4 nM
Structure (SMILES): Nc1ncc(-c2cccnc2)c2scc(-c3cccc(NC(=O)Nc4cc(C(F)(F)F)ccc4F)c3)c12

IC50 [1]: 20.9 nM
Structure (SMILES): Nc1ncc(-c2cccnc2)c2scc(-c3cccc(NC(=O)NCc4ccccc4)c3)c12

IC50 [1]: 19.5 nM
Structure (SMILES): Nc1ncc(-c2cccnc2)c2scc(-c3cccc(NC(=O)Nc4c(F)cccc4F)c3)c12

IC50 [1]: 19 nM
Structure (SMILES): Nc1ncc(-c2cccnc2)c2scc(-c3cccc(NC(=O)Cc4ccccc4)c3)c12

IC50 [1]: 16.6 nM | Ratio IC50 (Homo sapiens [2]): > 100 | Ratio IC50 (Homo sapiens [3]): > 100 | Ratio IC50 (Homo sapiens [4]): > 100 | Ratio IC50 (Homo sapiens [5]): > 100 | Ratio IC50 (Homo sapiens [6]): > 100 | Ratio IC50 (Homo sapiens [7]): > 100 | Ratio IC50 (Homo sapiens [8]): > 100 | Ratio IC50 (Homo sapiens [9]): > 100 | Ratio IC50 (Homo sapiens [10]): > 100 | Ratio IC50 (Homo sapiens [11]): > 100 | Ratio IC50 (Homo sapiens [12]): > 100 | Ratio IC50 (Homo sapiens [13]): > 100 | Ratio IC50 (Homo sapiens [14]): > 100 | Ratio IC50 (Homo sapiens [15]): > 100 | Ratio IC50 (Homo sapiens [16]): > 100 | Ratio IC50 (Homo sapiens [17]): > 100
Structure (SMILES): Nc1ncc(-c2cccnc2)c2scc(-c3cccc(NC(=O)Nc4ccc(Cl)c(C(F)(F)F)c4)c3)c12

IC50 [1]: 13.8 nM
Structure (SMILES): Nc1ncc(-c2cccnc2)c2scc(-c3cccc(NC(=O)Nc4ccccc4)c3)c12

IC50 [1]: 9.6 nM
Structure (SMILES): COc1cccc(NC(=O)Nc2cccc(-c3csc4c(-c5cccnc5)cnc(N)c34)c2)c1

IC50 [1]: 5.1 nM | Ratio IC50 (Homo sapiens [2]): > 40 | Ratio IC50 (Homo sapiens [3]): > 40 | Ratio IC50 (Homo sapiens [4]): > 40 | Ratio IC50 (Homo sapiens [5]): > 40 | Ratio IC50 (Homo sapiens [6]): > 40 | Ratio IC50 (Homo sapiens [7]): > 40 | Ratio IC50 (Homo sapiens [8]): > 40 | Ratio IC50 (Homo sapiens [9]): > 40 | Ratio IC50 (Homo sapiens [10]): > 40 | Ratio IC50 (Homo sapiens [11]): > 40 | Ratio IC50 (Homo sapiens [12]): > 40 | Ratio IC50 (Homo sapiens [13]): > 40 | Ratio IC50 (Homo sapiens [14]): > 40 | Ratio IC50 (Homo sapiens [15]): > 40 | Ratio IC50 (Homo sapiens [16]): > 40 | Ratio IC50 (Homo sapiens [17]): > 40
Structure (SMILES): Nc1ncc(-c2cccnc2)c2scc(-c3cccc(NC(=O)c4cccc(C(F)(F)F)c4)c3)c12

Reference: ChEMBL document CHEMBL2311416, “The discovery of potent and selective 4-aminothienopyridines as B-Raf kinase inhibitors” (Bioorg Med Chem Lett, 2013)
